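1) Cells in 96-well plates. 2) Compound, 48 h, 5 concentrations. 3) Linear interpolation between surrounding doses. 4) Unreached endpoint = highest concentration. GI50 is the concentration that inhibits growth by half. At the TGI there is no net growth.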
What was measured:
Assay in all cases: NCI-60 cell line screen, 48 h
SF-539 CNS = test system: SF-539 CNS
SN12C renal = test system: SN12C renal
CCRF-CEM leukemia = test system: CCRF-CEM leukemia
NCI-H23 lung = test system: NCI-H23 lung
NCI-H522 lung = test system: NCI-H522 lung
LOX IMVI melanoma = test system: LOX IMVI melanoma
HCC-2998 colon = test system: HCC-2998 colon
OVCAR-8 ovarian = test system: OVCAR-8 ovarian
HOP-92 NSCLC = test system: HOP-92 NSCLC
ACHN renal = test system: ACHN renal

SMILES | GI50 (SF-539 CNS) [µM] | TGI (SF-539 CNS) [µM] | GI50 (SN12C renal) [µM] | TGI (SN12C renal) [µM] | GI50 (CCRF-CEM leukemia) [µM] | TGI (CCRF-CEM leukemia) [µM] | GI50 (NCI-H23 lung) [µM] | TGI (NCI-H23 lung) [µM] | GI50 (NCI-H522 lung) [µM] | TGI (NCI-H522 lung) [µM] | GI50 (LOX IMVI melanoma) [µM] | TGI (LOX IMVI melanoma) [µM] | GI50 (HCC-2998 colon) [µM] | TGI (HCC-2998 colon) [µM] | GI50 (OVCAR-8 ovarian) [µM] | TGI (OVCAR-8 ovarian) [µM] | GI50 (HOP-92 NSCLC) [µM] | TGI (HOP-92 NSCLC) [µM] | GI50 (ACHN renal) [µM] | TGI (ACHN renal) [µM]
N[C@@H](Cc1c[nH]c2ccccc12)C(=O)NC1CCN(C(=O)c2c[nH]c3ccccc23)CC1 | > 100 | > 100 | > 100 | > 100 | > 100 | > 100 | > 100 | > 100 | > 100 | > 100 | 96.1 | > 100 | > 100 | > 100 | > 100 | > 100 | 71 | > 100 | > 100 | > 100
CSc1nc2c(c(=O)[nH]1)N=C1c3ccccc3C(=O)C1C(c1ccc(F)cc1)N2 (stereo not given) | 8.9 | 29.4 | 28.4 | > 100 | 8.16 | > 100 | 13.5 | 55.9 | 3.17 | 37.9 | 8.78 | 30 | 12.2 | 30.5 | 13.1 | 35.4 | 9.52 | 48.8 | 11.6 | 36.4
N#Cc1c(C(=O)c2ccccc2)cnn1-c1ccccc1 | > 25 | > 25 | > 25 | > 25 | > 25 | > 25 | > 25 | > 25 | > 25 | > 25 | > 25 | > 25 | > 25 | > 25 | > 25 | > 25 | > 25 | > 25 | > 25 | > 25
O=C(/C=C/c1ccc(OCC(=O)N2CCN(c3ccccc3)CC2)cc1)c1ccc(Cl)cc1 | – | 56.6 | – | > 100 | – | > 100 | – | > 100 | – | > 100 | – | > 100 | – | > 100 | – | > 100 | – | 47.8 | – | 69.7

Reference: PubChem BioAssay (NCI)
